Experimental findings from patent publication US11123337B2, “4-methylsulfonyl-substituted piperidine urea compounds” (MYOKARDIA, INC., priority 2015, dated 2021) are described below.

SMILES strings stand for the structures.

bovine cardiac myosin, sequence (Q9BE39 whole entry): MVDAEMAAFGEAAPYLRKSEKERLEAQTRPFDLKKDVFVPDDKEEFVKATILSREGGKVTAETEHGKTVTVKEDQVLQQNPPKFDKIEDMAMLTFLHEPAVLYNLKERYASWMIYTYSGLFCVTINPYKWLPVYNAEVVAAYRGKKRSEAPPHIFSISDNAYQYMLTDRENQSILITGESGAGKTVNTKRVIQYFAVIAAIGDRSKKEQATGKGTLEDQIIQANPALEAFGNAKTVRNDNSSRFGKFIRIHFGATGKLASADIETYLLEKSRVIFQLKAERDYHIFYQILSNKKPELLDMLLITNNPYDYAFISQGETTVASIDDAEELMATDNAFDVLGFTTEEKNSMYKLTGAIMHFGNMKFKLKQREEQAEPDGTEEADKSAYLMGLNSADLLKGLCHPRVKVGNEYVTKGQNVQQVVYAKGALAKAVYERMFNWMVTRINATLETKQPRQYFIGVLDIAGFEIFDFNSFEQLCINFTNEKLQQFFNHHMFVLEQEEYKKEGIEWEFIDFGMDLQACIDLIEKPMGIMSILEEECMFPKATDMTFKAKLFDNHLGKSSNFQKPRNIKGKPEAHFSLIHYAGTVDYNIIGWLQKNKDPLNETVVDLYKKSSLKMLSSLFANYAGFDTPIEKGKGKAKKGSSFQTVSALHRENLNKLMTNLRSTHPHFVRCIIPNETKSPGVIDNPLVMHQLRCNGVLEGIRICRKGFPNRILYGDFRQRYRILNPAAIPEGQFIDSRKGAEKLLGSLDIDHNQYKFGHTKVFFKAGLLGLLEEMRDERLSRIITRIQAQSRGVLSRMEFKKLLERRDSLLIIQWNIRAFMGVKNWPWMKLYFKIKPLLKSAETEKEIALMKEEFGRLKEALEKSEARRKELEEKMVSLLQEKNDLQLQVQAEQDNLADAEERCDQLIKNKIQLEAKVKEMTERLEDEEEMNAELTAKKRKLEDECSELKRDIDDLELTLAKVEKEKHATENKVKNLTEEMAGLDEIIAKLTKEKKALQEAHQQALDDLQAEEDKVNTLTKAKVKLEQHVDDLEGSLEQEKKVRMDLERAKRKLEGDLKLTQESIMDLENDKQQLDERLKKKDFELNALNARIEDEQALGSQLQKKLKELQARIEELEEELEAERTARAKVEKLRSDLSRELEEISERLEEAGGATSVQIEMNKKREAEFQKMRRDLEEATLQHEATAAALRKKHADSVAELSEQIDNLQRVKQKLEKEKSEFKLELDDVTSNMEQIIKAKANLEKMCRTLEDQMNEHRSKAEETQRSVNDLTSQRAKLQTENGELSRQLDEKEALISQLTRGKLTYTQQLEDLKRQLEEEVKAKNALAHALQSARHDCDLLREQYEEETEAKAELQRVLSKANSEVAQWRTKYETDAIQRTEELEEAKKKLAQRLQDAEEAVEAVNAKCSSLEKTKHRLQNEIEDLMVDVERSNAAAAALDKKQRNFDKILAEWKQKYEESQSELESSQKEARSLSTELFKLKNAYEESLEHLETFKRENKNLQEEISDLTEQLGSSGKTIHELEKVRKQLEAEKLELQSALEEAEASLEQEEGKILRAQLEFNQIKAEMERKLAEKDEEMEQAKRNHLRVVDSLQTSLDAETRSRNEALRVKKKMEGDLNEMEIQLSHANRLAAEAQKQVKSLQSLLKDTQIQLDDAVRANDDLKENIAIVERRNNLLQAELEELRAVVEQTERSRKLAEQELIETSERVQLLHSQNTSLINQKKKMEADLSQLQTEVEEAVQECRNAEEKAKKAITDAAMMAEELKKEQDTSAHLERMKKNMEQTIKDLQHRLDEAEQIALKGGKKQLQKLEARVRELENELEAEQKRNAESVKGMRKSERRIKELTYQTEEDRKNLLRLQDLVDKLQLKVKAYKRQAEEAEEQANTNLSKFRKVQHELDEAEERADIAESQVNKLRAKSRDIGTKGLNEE
bovine cardiac myosin, sequence (P85100 whole entry partner): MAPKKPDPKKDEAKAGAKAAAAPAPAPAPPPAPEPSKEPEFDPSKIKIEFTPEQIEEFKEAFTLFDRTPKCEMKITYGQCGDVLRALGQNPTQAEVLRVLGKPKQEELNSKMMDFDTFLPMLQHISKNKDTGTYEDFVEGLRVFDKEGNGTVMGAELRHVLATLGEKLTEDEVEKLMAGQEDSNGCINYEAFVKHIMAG
bovine cardiac myosin, sequence (Q3SZE5 whole entry partner): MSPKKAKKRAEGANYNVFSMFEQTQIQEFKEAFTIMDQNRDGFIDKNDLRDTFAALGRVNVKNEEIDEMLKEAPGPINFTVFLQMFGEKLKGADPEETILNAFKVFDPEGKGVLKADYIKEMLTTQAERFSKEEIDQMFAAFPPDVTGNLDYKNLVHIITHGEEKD

The target in this experiment is bovine cardiac myosin (Bos taurus, UniProt Q9BE39). As to the kind of experiment: Myosin activation assay (PK/LDH-coupled ATPase, bovine cardiac myofibrils). It counts as biochemical. The following applies: AC20 = concentration at which total response is increased by twenty percent. How it is done:
Small molecule agents were assessed for their ability to activate the enzymatic activity of bovine cardiac myosin using a biochemical assay that couples the release of ADP (adenosine diphosphate) from cardiac myosin to an enzymatic coupling system consisting of pyruvate kinase and lactate dehydrogenase (PK/LDH) and monitoring the absorbance decrease of NADH (at 340 nm) as a function of time. PK converts ADP to ATP (adenosine triphosphate) by converting PEP (phosphoenolpyruvate) to pyruvate. Pyruvate is then converted to lactate by LDH by converting NADH (nicotinamide adenine dinucleotide) to NAD (oxidized nicotinamide adenine dinucleotide). The source of cardiac myosin was from bovine heart in the form of skinned myofibrils. Prior to testing small molecule agents, the bovine myofibrils were assessed for their calcium responsiveness and the calcium concentration that achieves either a 50% (pCa50 or pCa=˜6) or <5% (pCa=10) activation of the myofibril system was chosen as the final condition for assessing the activation activity of the small molecule agents. All enzymatic activity was measured in a buffered solution containing 12 mM PIPES (piperazine-N,N′-bis(2-ethanesulfonic acid), 2 mM magnesium chloride at pH 6.8 (PM12 buffer). Final assay conditions were 1 mg/mL of bovine cardiac myofibrils, 0.4 mM PK/LDH, 50 uM ATP, 0.1 mg/mL BSA (bovine serum albumin), 10 ppm antifoam, 2 mM BME, 0.5 mM NADH, 1.5 mM PEP at the desired free calcium concentration required to achieve either 50% or <5% activation of the myofibrils.
A dilution series of compound was created in DMSO such that the final desired concentration of compound would be achieved in a volume of […] with a fixed DMSO concentration of 3.3% (v/v). Typically a 1 μL of the dilution series was added to a 384 well plate to achieve a 10 point dose response. Following the addition of 14 μL of a solution containing bovine cardiac myofibrils, PK/LDH and a solution of calcium (that achieved the desired activation), the enzymatic reaction was started with the addition of 15 μL of a solution containing ATP, PEP and NADH. The reaction progress was followed in a PerkinElmer Envision plate reader at ambient temperature using clear bottom plates. The plate reader was configured to read absorbance at 340 nm in kinetics mode for 15 minutes. Data were recorded as the slope of the absorbance response to time. The slopes of the absorbance response as a function of time were normalized to slopes on the plate containing DMSO. This normalized rate was then plotted as a function of small molecule concentration and the data was fitted to a four-parameter fit using EXCEL XLfit. The concentration at which the total response is increased by twenty or fifty percent is reported as AC20 or AC50.
For the compound `CC(C)n1cc(S(=O)(=O)CC2CCN(C(=O)Nc3ccncc3)CC2)cn1` [Compound 1, 4-(((1-Isopropyl-1H-pyrazol-4-yl)sulfonyl)methyl)-N-(pyridin-4-yl)piperidine-1-carboxamide], the “Myosin Activation (AC20)” value was “+ (+ represents myosin activation value AC20 > 5 μM)”.

For `N#Cc1cc(C(F)(F)F)ccc1S(=O)(=O)C(F)(F)C1CCN(C(=O)Nc2ccnnc2)CC1` [Compound 3, 4-(((2-Cyano-4-(trifluoromethyl)phenyl)sulfonyl)difluoromethyl)-N-(pyridazin-4-yl)piperidine-1-carboxamide], the “Myosin Activation (AC20)” value was “+++ (+++ represents myosin activation value AC20 < 2 μM)”.

With `O=C(Nc1ccnnc1)N1CCC(C(F)(F)S(=O)(=O)c2ccccc2C(F)F)CC1` [Compound 4, 4-(((2-(Difluoromethyl)phenyl)sulfonyl)difluoromethyl)-N-(pyridazin-4-yl)piperidine-1-carboxamide], the “Myosin Activation (AC20)” value is listed as “++ (++ represents myosin activation value AC20 from 2 μM-5 μM)”.

For `CC(F)(C1CCN(C(=O)Nc2ccon2)CC1)S(=O)(=O)c1ccc(C(F)(F)F)cc1` (stereo not drawn) [Compound 8, 4-(1-Fluoro-1-((4-(trifluoromethyl)phenyl)sulfonyl)ethyl)-N-(isoxazol-3-yl)piperidine-1-carboxamide], the “Myosin Activation (AC20)” value is given as “+++ (+++ represents myosin activation value AC20 < 2 μM)”.

Regarding `COc1ccc(S(=O)(=O)C(C)(F)C2CCN(C(=O)Nc3ccnnc3)CC2)cn1` (stereo not drawn) [Compound 9, 4-(1-fluoro-1-((6-methoxypyridin-3-yl)sulfonyl)ethyl)-N-(pyridazin-4-yl)piperidine-1-carboxamide], the “Myosin Activation (AC20)” value is on record as “+++ (+++ represents myosin activation value AC20 < 2 μM)”.

In the case of `CC(F)(C1CCN(C(=O)Cc2ccnnc2)CC1)S(=O)(=O)c1cccc(F)c1` (stereo not drawn) [Compound 10, 1-(4-(1-Fluoro-1-((3-fluorophenyl)sulfonyl)ethyl)piperidin-1-yl)-2-(pyridazin-4-yl)ethan-1-one], the “Myosin Activation (AC20)” value was “+ (+ represents myosin activation value AC20 > 5 μM)”.

Consider `CC(F)(C1CCN(C(=O)Nc2ccno2)CC1)S(=O)(=O)c1cccc(F)c1` (stereo not drawn) [Compound 11, 4-(1-Fluoro-1-((3-fluorophenyl)sulfonyl)ethyl)-N-(isoxazol-5-yl)piperidine-1-carboxamide], for which the “Myosin Activation (AC20)” value is on record as “++ (++ represents myosin activation value AC20 from 2 μM-5 μM)”.

Regarding `Cc1cc(NC(=O)N2CCC(C(C)(F)S(=O)(=O)c3cccc(F)c3)CC2)cnn1` (stereo not drawn) [Compound 12, 4-(1-Fluoro-1-((3-fluorophenyl)sulfonyl)ethyl)-N-(6-methylpyridazin-4-yl)piperidine-1-carboxamide], the “Myosin Activation (AC20)” value is “+ (+ represents myosin activation value AC20 > 5 μM)”.

As to `CC(F)(C1CCN(C(=O)Nc2ccnnc2)CC1)S(=O)(=O)c1ccc(OC(F)F)nc1` (stereo not drawn) [Compound 14, 4-(1-((6-(Difluoromethoxy)pyridin-3-yl)sulfonyl)-1-fluoroethyl)-N-(pyridazin-4-yl)piperidine-1-carboxamide], the “Myosin Activation (AC20)” value is listed as “+++ (+++ represents myosin activation value AC20 < 2 μM)”.

For `Cn1cc(S(=O)(=O)C(C)(F)C2CCN(C(=O)Nc3ccon3)CC2)c(C(F)(F)F)n1` (stereo not drawn) [Compound 16, 4-(1-Fluoro-1-((1-methyl-3-(trifluoromethyl)-1H-pyrazol-4-yl)sulfonyl)ethyl)-N-(isoxazol-3-yl)piperidine-1-carboxamide], the “Myosin Activation (AC20)” value is given as “++ (++ represents myosin activation value AC20 from 2 μM-5 μM)”.

`Cn1nc(C(F)F)cc1S(=O)(=O)C(C)(F)C1CCN(C(=O)Nc2ccnnc2)CC1` (stereo not drawn) [Compound 17, 4-(1-((3-(difluoromethyl)-1-methyl-1H-pyrazol-5-yl)sulfonyl)-1-fluoroethyl)-N-(pyridazin-4-yl)piperidine-1-carboxamide]: the “Myosin Activation (AC20)” value is reported as “+++ (+++ represents myosin activation value AC20 < 2 μM)”.

`Cn1cc(S(=O)(=O)C(C)(F)C2CCN(C(=O)Nc3ccon3)CC2)c(Cl)n1` (stereo not drawn) [Compound 19, 4-(1-((3-Chloro-1-methyl-1H-pyrazol-4-yl)sulfonyl)-1-fluoroethyl)-N-(isoxazol-3-yl)piperidine-1-carboxamide]: the “Myosin Activation (AC20)” value is recorded as “+ (+ represents myosin activation value AC20 > 5 μM)”.

As for `Cn1cc(S(=O)(=O)[C@](C)(F)C2CCN(C(=O)Nc3ccon3)CC2)c(C(F)F)n1` [Compound 21, (S)-4-(1-((3-(Difluoromethyl)-1-methyl-1H-pyrazol-4-yl)sulfonyl)-1-fluoroethyl)-N-(isoxazol-3-yl)piperidine-1-carboxamide], the “Myosin Activation (AC20)” value is “+ (+ represents myosin activation value AC20 > 5 μM)”.

On to `O=C(Nc1ccnnc1)N1CCC(C(F)(F)S(=O)(=O)c2cccn3ccnc23)CC1` [Compound 22, 4-(Difluoro(imidazo[1,2-a]pyridin-8-ylsulfonyl)methyl)-N-(pyridazin-4-yl)piperidine-1-carboxamide], for which the “Myosin Activation (AC20)” value is listed as “+ (+ represents myosin activation value AC20 > 5 μM)”.

Consider `Cc1cc(S(=O)(=O)C(F)(F)C2CCN(C(=O)Nc3ccnnc3)CC2)n(C)n1` [Compound 23, 4-(((1,3-Dimethyl-1H-pyrazol-5-yl)sulfonyl)difluoromethyl)-N-(pyridazin-4-yl)piperidine-1-carboxamide], for which the “Myosin Activation (AC20)” value was “++ (++ represents myosin activation value AC20 from 2 μM-5 μM)”.

As for `Cn1nc(C2CC2)cc1S(=O)(=O)C(F)(F)C1CCN(C(=O)Nc2ccnnc2)CC1` [Compound 24, 4-(((3-Cyclopropyl-1-methyl-1H-pyrazol-5-yl)sulfonyl)difluoromethyl)-N-(pyridazin-4-yl)piperidine-1-carboxamide], the “Myosin Activation (AC20)” value is “++ (++ represents myosin activation value AC20 from 2 μM-5 μM)”.

Take `O=C(Nc1ccnnc1)N1CCC(C(F)(F)S(=O)(=O)c2ccccc2CO)CC1` [Compound 25, 4-(Difluoro((2-(hydroxymethyl)phenyl)sulfonyl)methyl)-N-(pyridazin-4-yl)piperidine-1-carboxamide]: the “Myosin Activation (AC20)” value is on record as “++ (++ represents myosin activation value AC20 from 2 μM-5 μM)”.

Take `Cn1cc(S(=O)(=O)C(C)(C)C2CCN(C(=O)Nc3ccon3)CC2)c(Cl)n1` [Compound 27, 4-(2-((3-Chloro-1-methyl-1H-pyrazol-4-yl)sulfonyl)propan-2-yl)-N-(isoxazol-3-yl)piperidine-1-carboxamide]: the “Myosin Activation (AC20)” value is recorded as “+ (+ represents myosin activation value AC20 > 5 μM)”.

Consider `O=C(Nc1ccnnc1)N1CCC(C2(S(=O)(=O)c3cccc(F)c3)CC(F)(F)C2)CC1` [Compound 28, 4-(3,3-Difluoro-1-((3-fluorophenyl)sulfonyl)cyclobutyl)-N-(pyridazin-4-yl)piperidine-1-carboxamide], for which the “Myosin Activation (AC20)” value is “++ (++ represents myosin activation value AC20 from 2 μM-5 μM)”.

For the compound `C[C@H](O)c1cc(NC(=O)N2CCC([C@@](C)(F)S(=O)(=O)c3cn(C)nc3C(F)F)CC2)ccn1` [Compound 29, 4-((S)-1-((3-(Difluoromethyl)-1-methyl-1H-pyrazol-4-yl)sulfonyl)-1-fluoroethyl)-N-(2-((S)-1-hydroxyethyl)pyridin-4-yl)piperidine-1-carboxamide], the “Myosin Activation (AC20)” value is “+ (+ represents myosin activation value AC20 > 5 μM)”.

As for `CC(C)(C1(F)CCN(C(=O)Nc2ccnnc2)CC1)S(=O)(=O)c1cccc(F)c1` [Compound 30, 4-Fluoro-4-(2-((3-fluorophenyl)sulfonyl)propan-2-yl)-N-(pyridazin-4-yl)piperidine-1-carboxamide], the “Myosin Activation (AC20)” value was “++ (++ represents myosin activation value AC20 from 2 μM-5 μM)”.

As for `CC(C1CCN(C(=O)Nc2ccncc2)CC1)S(=O)(=O)c1cccc(F)c1` (stereo not drawn) [Compound 31, 4-(1-((3-fluorophenyl)sulfonyl)ethyl)-N-(pyridin-4-yl)piperidine-1-carboxamide], the “Myosin Activation (AC20)” value is reported as “++ (++ represents myosin activation value AC20 from 2 μM-5 μM)”.

For the compound `O=C(Nc1ccncc1)N1CCC(CS(=O)(=O)c2cccc(F)c2)CC1` [Compound 33, 4-(((3-fluorophenyl)sulfonyl)methyl)-N-(pyridin-4-yl)piperidine-1-carboxamide], the “Myosin Activation (AC20)” value is listed as “+ (+ represents myosin activation value AC20 > 5 μM)”.

Turning to `O=C(Nc1ccnnc1)N1CCC(CS(=O)(=O)c2cccc(F)c2)CC1` [Compound 34, 4-(((3-fluorophenyl)sulfonyl)methyl)-N-(pyridazin-4-yl)piperidine-1-carboxamide], the “Myosin Activation (AC20)” value is reported as “+ (+ represents myosin activation value AC20 > 5 μM)”.
